In ChEMBL document CHEMBL4308841, “Synthesis, in vitro antiproliferative activity, and kinase inhibitory effects of pyrazole-containing diarylureas and diarylamides” (Eur J Med Chem, 2018):

What follows are compounds tested on KM12 (assay: Growth inhibition of human KM12 cells assessed as cell growth at 10 uM incubated for 48 hrs by sulforhodamine B assay relative to control). Conditions: KM12, 48 h, read-out: Activity.
Type: functional
For `O=C(Nc1cccc(-n2cc(-c3ccncc3)c(-c3cc(O)cc(Cl)c3)n2)c1)c1ccc(N2CCOCC2)c(C(F)(F)F)c1`, the growth at 10 µM was 9.89%.

These compounds were tested on OVCAR-8 (assay: Growth inhibition of human OVCAR8 cells assessed as cell growth at 10 uM incubated for 48 hrs by sulforhodamine B assay relative to control). Conditions: OVCAR-8, 48 h, read-out: Activity.
Type: functional
`O=C(Nc1cccc(-n2cc(-c3ccncc3)c(-c3cc(O)cc(Cl)c3)n2)c1)c1ccc(N2CCOCC2)c(C(F)(F)F)c1` gave a growth at 10 µM of 22.7%.

These compounds were tested on SK-MEL-28 (assay: Growth inhibition of human SK-MEL-28 cells assessed as cell growth at 10 uM incubated for 48 hrs by sulforhodamine B assay relative to control). Conditions: SK-MEL-28, 48 h, read-out: Activity.
Type: functional
`O=C(Nc1cccc(-n2cc(-c3ccncc3)c(-c3cc(O)cc(Cl)c3)n2)c1)c1ccc(N2CCOCC2)c(C(F)(F)F)c1` showed a growth at 10 µM of -52.4%.

These compounds were tested on NCI-H23 (assay: Growth inhibition of human NCI-H23 cells assessed as cell growth at 10 uM incubated for 48 hrs by sulforhodamine B assay relative to control). Conditions: NCI-H23, 48 h, read-out: Activity.
Type: functional
In the case of `O=C(Nc1cccc(-n2cc(-c3ccncc3)c(-c3cc(O)cc(Cl)c3)n2)c1)c1ccc(N2CCOCC2)c(C(F)(F)F)c1`, the growth at 10 µM is reported as 15.4%.

The compounds below were run on RPMI-8226 (assay: Growth inhibition of human RPMI8226 cells assessed as cell growth at 10 uM incubated for 48 hrs by sulforhodamine B assay relative to control). Conditions: RPMI-8226, 48 h, read-out: Activity.
Type: functional
`O=C(Nc1cccc(-n2cc(-c3ccncc3)c(-c3cc(O)cc(Cl)c3)n2)c1)c1ccc(N2CCOCC2)c(C(F)(F)F)c1` showed a growth at 10 µM of -3.77%.

These compounds were tested on CCRF-CEM (assay: Growth inhibition of human CCRF-CEM cells assessed as cell growth at 10 uM incubated for 48 hrs by sulforhodamine B assay relative to control). Conditions: read-out: Activity.
Type: functional
For `O=C(Nc1cccc(-n2cc(-c3ccncc3)c(-c3cc(O)cc(Cl)c3)n2)c1)c1ccc(N2CCOCC2)c(C(F)(F)F)c1`, the growth at 10 µM was 13.1%.

The compounds below were run on HCT-15 (assay: Growth inhibition of human HCT15 cells assessed as cell growth at 10 uM incubated for 48 hrs by sulforhodamine B assay relative to control). Conditions: HCT-15, 48 h, read-out: Activity.
Type: functional
With `O=C(Nc1cccc(-n2cc(-c3ccncc3)c(-c3cc(O)cc(Cl)c3)n2)c1)c1ccc(N2CCOCC2)c(C(F)(F)F)c1` the growth at 10 µM was 6.25%.

The compounds below were run on MCF7 (assay: Growth inhibition of human MCF7 cells assessed as cell growth at 10 uM incubated for 48 hrs by sulforhodamine B assay relative to control). Conditions: MCF7, 48 h, read-out: Activity.
Type: functional
Work on `O=C(Nc1cccc(-n2cc(-c3ccncc3)c(-c3cc(O)cc(Cl)c3)n2)c1)c1ccc(N2CCOCC2)c(C(F)(F)F)c1` yielded a growth at 10 µM of 29.7%.

Each compound was assayed on A498 (assay: Growth inhibition of human A498 cells assessed as cell growth at 10 uM incubated for 48 hrs by sulforhodamine B assay relative to control). Conditions: A498, 48 h, read-out: Activity.
Type: functional
In the case of `O=C(Nc1cccc(-n2cc(-c3ccncc3)c(-c3cc(O)cc(Cl)c3)n2)c1)c1ccc(N2CCOCC2)c(C(F)(F)F)c1`, the growth at 10 µM is reported as 72.7%.

The compounds below were run on SR (assay: Growth inhibition of human SR cells assessed as cell growth at 10 uM incubated for 48 hrs by sulforhodamine B assay relative to control). Conditions: read-out: Activity.
Type: functional
`O=C(Nc1cccc(-n2cc(-c3ccncc3)c(-c3cc(O)cc(Cl)c3)n2)c1)c1ccc(N2CCOCC2)c(C(F)(F)F)c1` showed a growth at 10 µM of -12.4%.

Each compound was assayed on HCC 2998 (assay: Growth inhibition of human HCC2998 cells assessed as cell growth at 10 uM incubated for 48 hrs by sulforhodamine B assay relative to control). Conditions: HCC 2998, 48 h, read-out: Activity.
Type: functional
`O=C(Nc1cccc(-n2cc(-c3ccncc3)c(-c3cc(O)cc(Cl)c3)n2)c1)c1ccc(N2CCOCC2)c(C(F)(F)F)c1` gave a growth at 10 µM of -3.65%.

What follows are compounds tested on BT-549 (assay: Growth inhibition of human BT549 cells assessed as cell growth at 10 uM incubated for 48 hrs by sulforhodamine B assay relative to control). Conditions: BT-549, 48 h, read-out: Activity.
Type: functional
`O=C(Nc1cccc(-n2cc(-c3ccncc3)c(-c3cc(O)cc(Cl)c3)n2)c1)c1ccc(N2CCOCC2)c(C(F)(F)F)c1` gave a growth at 10 µM of 52.2%.

The compounds below were run on OVCAR-5 (assay: Growth inhibition of human OVCAR5 cells assessed as cell growth at 10 uM incubated for 48 hrs by sulforhodamine B assay relative to control). Conditions: OVCAR-5, 48 h, read-out: Activity.
Type: functional
Work on `O=C(Nc1cccc(-n2cc(-c3ccncc3)c(-c3cc(O)cc(Cl)c3)n2)c1)c1ccc(N2CCOCC2)c(C(F)(F)F)c1` yielded a growth at 10 µM of 81.4%.

Each compound was assayed on SF-268 (assay: Growth inhibition of human SF268 cells assessed as cell growth at 10 uM incubated for 48 hrs by sulforhodamine B assay relative to control). Conditions: SF-268, 48 h, read-out: Activity.
Type: functional
`O=C(Nc1cccc(-n2cc(-c3ccncc3)c(-c3cc(O)cc(Cl)c3)n2)c1)c1ccc(N2CCOCC2)c(C(F)(F)F)c1` was tested, and the growth at 10 µM was 52.7%.

What follows are compounds tested on SNB-19 (assay: Growth inhibition of human SNB19 cells assessed as cell growth at 10 uM incubated for 48 hrs by sulforhodamine B assay relative to control). Conditions: SNB-19, 48 h, read-out: Activity.
Type: functional
In the case of `O=C(Nc1cccc(-n2cc(-c3ccncc3)c(-c3cc(O)cc(Cl)c3)n2)c1)c1ccc(N2CCOCC2)c(C(F)(F)F)c1`, the growth at 10 µM is reported as 12.1%.

What follows are compounds tested on NCI-H322M (assay: Growth inhibition of human NCI-H322M cells assessed as cell growth at 10 uM incubated for 48 hrs by sulforhodamine B assay relative to control). Conditions: read-out: Activity.
Type: functional
`O=C(Nc1cccc(-n2cc(-c3ccncc3)c(-c3cc(O)cc(Cl)c3)n2)c1)c1ccc(N2CCOCC2)c(C(F)(F)F)c1` was tested, and the growth at 10 µM was 43.5%.
